Columns and labels:
[1] = tested on: HCT116 tumoroid cells; experiment: Drug response of HCT116 tumoroids on FiSS, CELLTITER-GLO viability, platform 10 (Chip) vs static system (Control); format: cell-based; settings: 48 hours drug treatment, microfluidic platform 10 (Chip) compared with static system (Control), FIGS. 15A-15C
Procedure: (§1) FIG. 6 depicts the results of experiments performed on platform 10 described in detail above. In a first step, microfluidic channel layer 14 is cleaned and a scaffold to be grown on platform 10 is washed. Either 3000 cells of HT29, 2000 cells of HCT116, of 3500 cells of LLC are seeded in 100 μL of a culture media 30. After 48 hours, an additional 100 μl of the culture media 30 is added to inlet well 20, and an additional 50 μL of the culture media is added to culture well 21, with no fresh media added to outlet well 22. Approximately 48 hours after the additional media is added, a drug response test is performed. All the culture media 30 is removed from culture well 21, and 300 μL of a drug dissolved media is added to culture well 21 at the control plate. […]
(§2) A test, such as a CELLTITER-GLO® test, is performed 48 hours later to quantify the viable cells in the culture. […] Cell viability was determined using a CELLTITER-GLO® assay (Promega) according to the manufacturer's protocol. Luminescence was measured in a white well-plate in a Bio-Tek Synergy H4 plate reader (BioTek). An average luminescence value for each group was plotted as a percentage of the control group. […]

[2] = tested on: HT29 tumoroid cells; experiment: Drug response of HT29 tumoroids on FiSS, CELLTITER-GLO viability, platform 10 (Chip) vs static system (Control); format: cell-based; settings: 48 hours drug treatment, microfluidic platform 10 (Chip) compared with static system (Control), FIGS. 14A-14C
Procedure: as §1, §2

| Structure (SMILES) | drug dose required on platform 10 to have the same IC50 as the static systems [1] | drug dose required on platform 10 to have the same IC50 as the static systems [2] |
| --- | --- | --- |
| O=c1[nH]cc(F)c(=O)[nH]1 [fluorouracil] | lower drug dose | higher drug dose |
| O=C1[O][Pt]2([NH][C@@H]3CCCC[C@H]3[NH]2)[O]C1=O [oxaliplatin] | higher drug dose | higher drug dose |
